Assay results as given in PMC6352943, “Novel pyrazolo[3,4-d]pyrimidines: design, synthesis, anticancer activity, dual EGFR/ErbB2 receptor tyrosine kinases inhibitory activity, effects on cell cycle profile and caspase-3-mediated apoptosis” (Journal of Enzyme Inhibition and Medicinal Chemistry, 2019).
Where “and” joins values, the source holds several entries; their conditions need not be identical. Identical values can stand only once.

Legend:
UACC-62 = experiment: NCI 60 cell line single dose screen (SRB); format: cell-based; conditions: Homo sapiens; UACC-62 (melanoma), single dose 10^−5 M, 48 h; read-out: Growth inhibition percentage
Procedure, shortened: (§1)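 Cells were plated and grown 24 h at 37 °C, 5% CO2 before compound addition from DMSO stock, then exposed 48 h. Adherent cells were fixed with cold TCA (final 10%) and suspension cells with 16% TCA. SRB-stained protein was read at 515 nm and percent growth was calculated against time-zero and untreated plates.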

CAKI-1 = experiment: NCI 60 cell line single dose screen (SRB); format: cell-based; conditions: Homo sapiens; CAKI-1 (renal cancer), single dose 10^−5 M, 48 h; read-out: Growth inhibition percentage
Procedure, shortened: as §1

OVCAR-4 cells = experiment: Cell cycle analysis by flow cytometry (PI); format: cell-based, human
Experimental: After treatment, the cells were washed twice with ice-cold PBS, collected by centrifugation, and fixed in ice-cold 70% (v/v) ethanol, washed with PBS, re-suspended with 0.1 mg/mL RNase, stained with […] propidium iodide (PI), and analysed by flow cytometry using FACS Calibur (Becton Dickinson)[31]. The cell cycle distributions were calculated using Cell-Quest software (Becton Dickinson).

human active caspase-3 = experiment: Active caspase-3 level (ELISA) in OVCAR-4 cells; format: cell-based; conditions: OVCAR-4 cells treated at IC50 for 24 h
Experimental: The level of human active caspase-3 protein was evaluated using Invitrogen (Catalog KHO1091) ELISA kit. The manufacturer’s instructions were followed in the following procedures. Add 100 μL of the standard diluent buffer to the zero standard wells. Add 100 μL of standards and controls or diluted samples to the appropriate microtitre wells. Cover wells with and incubate for 2 h at room temperature. Thoroughly aspirate or decant solution from wells and discard the liquid. Pipette 100 μL of caspase-3 (active) detection antibody solution into each well. Cover plate and incubate for 1 h at room temperature. Add 100 μL Anti-Rabbit IgG HRP working solution to each well. Cover wells with the plate cover and incubate for 30 min at room temperature. Add 100 μL of stabilised chromogen to each well. The liquid in the wells will begin to turn blue. Incubate for 30 min at room temperature. Stop solution has been added to each well. The solution in the wells should change from blue to yellow. Read the plate within 2 h after adding the stop solution. Use a curve fitting software to generate the standard curve.
EGFR and ErbB2 tyrosine kinase inhibitors are well known to potentiate the intrinsic apoptotic pathway via increase in caspase-3 enzyme activity[34]^,[35].

[1] = OVCAR-4, 7d at IC50 (1.74 μM), 24 h

SMILES | inhibition at 10 µM (UACC-62) | inhibition at 10 µM (CAKI-1) | Cell cycle distribution %Apoptosis (pre-G1) (OVCAR-4 cells; [1]) | Cell cycle distribution %G0/G1 (OVCAR-4 cells; [1]) | Cell cycle distribution %G2/M (OVCAR-4 cells; [1]) | Cell cycle distribution %S (OVCAR-4 cells; [1]) | Increase in cells accumulated in pre-G1 phase compared to control (OVCAR-4 cells; OVCAR-4, at IC50, 24 h) | Increase in percentage of cells at G2/M phases compared to control (OVCAR-4 cells; OVCAR-4, at IC50, 24 h) | Increase in the level of active caspase-3 compared to control (human active caspase-3) | Caspase3 conc. (human active caspase-3; mean ± SD of three experiments)
Cc1nn(-c2ccc(F)cc2)c2ncnc(Cl)c12 [Compound 6, 4-Chloro-1–(4-fluorophenyl)-3-methyl-1H-pyrazolo[3,4-d]pyrimidine] | 12.6% | 1.02% | – | – | – | – | – | – | – | –
Cc1nn(-c2ccc(F)cc2)c2ncnc(Nc3ccc(F)c(Cl)c3)c12 [Compound 7d, N-(3-Chloro-4-fluorophenyl)-1–(4-fluorophenyl)-3-methyl-1H-pyrazolo[3,4-d] pyrimidin-4-amine] | – | – | 21.71% | 29.77% | 36.44% | 33.79% | ~11 folds | 5 folds | 10.8 fold and 11 fold | 568.50 ± 14.0 pg/mL
